From patent US20120277286A1, “COMPOSITIONS AND METHODS FOR THE TREATMENT OR PREVENTION OF MITOCHONDRIAL DISEASES” (The Government of the USA, as represented by the Secretary, …, priority 2009, published 2012)

Columns and labels:
HEK293 cells = test: Endogenous Parkin localization by immunostaining after depolarization; format: cell-based; details: 10 μM CCCP
Protocol: Mitochondrial fission has been linked to the function of Parkin and to the autophagy of small defective mitochondria that lack membrane potential. To test whether mitochondrial depolarization causes Parkin accumulation on mitochondria, HEK293 cells were treated with the mitochondrial uncoupler carbonyl cyanide m-chlorophenylhydrazone (CCCP). Within 1 hour of adding CCCP, endogenous Parkin was recruited to mitochondria in the majority of cells (FIG. 1B) and increased appearance in the heavy membrane pellet on Western blots (FIG. 1C). […] As with endogenous Parkin in HEK293 cells, CCCP exposure induced the redistribution of YFP-Parkin from the cytosol to the mitochondria (FIGS. 1E and F). […] The mitochondrial translocation of Parkin caused by mitochondrial depolarization was also assayed by fluorescence loss in photobleaching (FLIP).
Cultured cells seeded in borosilicate chamber slides (Thermo Fisher Scientific) were transfected or cotransfected with YFP-Parkin, ECFP-Parkin, mCherry-Parkin, DsRed-Mito (Clontech Laboratories, Inc.), pcDNA3.1 (Invitrogen), vMIA, and/or Drp1K38A constructs using Fugene 6 (Roche). Parkin-myc was a gift from M. Cookson (National Institutes of Health, Bethesda, Md.). Cells were fixed 12-24 hours after transfection with 4% paraformaldehyde in PBS. […]

HeLa cells = test: PINK1-YFP imaging and colocalization in HeLa cells; format: cell-based; details: live imaging, 10 μM CCCP
Protocol: (§1) Confocal microscopy of fixed samples, scoring of Parkin recruitment and Parkininduced mitophagy, and live cell imaging were performed as described previously (Narendra (2008) J Cell Biol 183: 795-803). Experiments in Mfn1/2 null cells were performed as described previously with minor modifications.
as §1, with “Parkin-induced” for “Parkininduced”, “imageing” for “imaging”, “modifications described in the supplemental methods (Narendra (2008) J Cell Biol 183: 795-803).” for “modifications.”

M17 cells = test: Mitochondrial mass by Mitotracker Green staining; format: cell-based, human; details: control shRNA (CCCP line) or PINK1 shRNA
Protocol: To test whether PINK1 expression affects mitochondrial turnover in the presence of endogenous levels of Parkin, the control shRNA and PINK1 shRNA M17 cells (which express moderate levels of Parkin) were treated with DMSO or CCCP for 24 hours and measured their relative mitochondrial mass by Mitotracker Green (MTG) staining and flow cytometry. MTG, a sensitive measure of mitochondrial mass, stains mitochondrial lipid in a membrane potential independent manner and has been used to measure mitochondrial mass of depolarized mitochondria previously (Hristova et al., J Biol Chem. In press; Whitworth et al., Dis Model Mech 1: 168-174, 2008). […] To more directly assay mitochondrial turnover in control and PINK1 shRNA M17 cells, the cells were pulsed with MTG and loss of MTG intensity was tracked at 0, 16, and 24 hours in the presence of CCCP. Consistent with the hypothesis that endogenous PINK1 promotes the degradation of depolarized mitochondria, Mitotracker Green intensity decreased more slowly in PINK1 shRNA cells when compared with control shRNA cells, treated with CCCP (0.58±0.07 vs. 0.33±0.07 relative MTG intensity at 24 hours) (FIG. 12F).

[1] = test system: M17 human neuroblastoma cells; test: Parkin-induced mitophagy in M17 cells; format: cell-based; details: control shRNA (Parkin line) or PINK1 shRNA, 10 μM CCCP, 24 hours
From the text: HeLa YFP-Parkin, PINK1+/+ SV40 transformed MEFs cells, PINK1−/− SV40 transformed MEF, M17 neuroblastoma control shRNA, M17 neuroblastoma PINK1, and Mfn1/2−/− MEF cell lines have been described previously (Narendra (2008) J Cell Biol 183: 795-803). PINK1+/+ and PINK1−/− primary MEFs were isolated from embryos using a standard protocol (Gautier (2008) Proc Natl Acad Sci USA 105: 11364-11369). Parkin+/+ and Parkin−/− transformed MEFs were created by isolation of primary cells from embryos of B6.129S4-Park2tm1Shn/J mice (Jackson Labs), using a standard protocol (Gautier (2008) Proc Natl Acad Sci USA 105: 11364-11369), followed by retroviral transduction of SV40 (Applied Biological Materials, Inc.). YFP-Parkin, YFPParkin mutants, mCherry-Parkin, PINK1-YFP, PINK1 KD-YFP, PINK1 Δ1-110-YFP, and Opa3-PINK1 Δ1-110-YFP are in C1 or N1 Clontech vectors. PINK1WT-V5, PINK1 KD-V5, and PINK1 Δ1-156-V5 are in pDest40 vector (Invitrogen). PINK1 patient mutations are in pLenti-V5 vector (Invitrogen). PINK1-myc is in a pCMBTNT vector (Promega).
as §1, with “modifications. […]” for “modifications.”

| Molecule | time to recruitment of endogenous Parkin to mitochondria in the majority of cells (HEK293 cells) [h] | time when increase of PINK1-YFP expression was first detectable (HeLa cells) [min] | relative MTG intensity (M17 cells; M17 cells pulsed with MTG, CCCP, at 24 hours) | change in mitochondrial mass, CCCP vs. DMSO (M17 cells; M17 cells, 24 hours, MTG flow cytometry) [%] | cells with complete loss of mitochondria [1] [%] |
| --- | --- | --- | --- | --- | --- |
| N#CC(C#N)=NNc1cccc(Cl)c1 [CCCP, carbonyl cyanide m-chlorophenylhydrazone] | ≤ 1 | 1 to 5 | 0.33±0.07 | −22.4±12.6 |  |
| YFP-Parkin: YFP-tagged Parkin E3 ligase expressed from a transfected vector (protein, UniProt O60260 1-465, looked up, YFP fusion, YFP-tagged Parkin E3 ligase expressed from a transfected vector) E3 ubiquitin-protein ligase …: MIVFVRFNSSHGFPVEVDSDTSIFQLKEVVAKRQGVPADQLRVIFAGKELRNDWTVQNCDLDQQSIVHIVQRPWRKGQEMNATGGDDPRNAAGGCEREPQSLTRVDLSSSVLPGDSVGLAVILHTDSRKDSPPAGSPAGRSIYNSFYVYCKGPCQRVQPGKLRVQCSTCRQATLTLTQGPSCWDDVLIPNRMSGECQSPHCPGTSAEFFFKCGAHPTSDKETSVALHLIATNSRNITCITCTDVRSPVLVFQCNSRHVICLDCFHLYCVTRLNDRQFVHDPQLGYSLPCVAGCPNSLIKELHHFRILGEEQYNRYQQYGAEECVLQMGGVLCPRPGCGAGLLPEPDQRKVTCEGGNGLGCGFAFCRECKEAYHEGECSAVFEASGTTTQAYRVDERAAEQARWEAASKETIKKTTKPCPRCHVPVEKNGGCMHMKCPQPQCRLEWCWNCGCEWNRVCMGDHWFDV |  |  |  |  | 27.1±8.6 |
